This passage reports EC50 results from ChEMBL document CHEMBL1124170, “N2-phenyldeoxyguanosine: a novel selective inhibitor of herpes simplex thymidine kinase” (J Med Chem, 1988).

Molecules are shown by their SMILES.

One assay has as its target T1, Thymidine kinase (Human herpesvirus 1 (strain SC16) (HHV-1) (Human herpes simplex virus1), UniProt P06479).
T1 sequence (P06479 whole entry): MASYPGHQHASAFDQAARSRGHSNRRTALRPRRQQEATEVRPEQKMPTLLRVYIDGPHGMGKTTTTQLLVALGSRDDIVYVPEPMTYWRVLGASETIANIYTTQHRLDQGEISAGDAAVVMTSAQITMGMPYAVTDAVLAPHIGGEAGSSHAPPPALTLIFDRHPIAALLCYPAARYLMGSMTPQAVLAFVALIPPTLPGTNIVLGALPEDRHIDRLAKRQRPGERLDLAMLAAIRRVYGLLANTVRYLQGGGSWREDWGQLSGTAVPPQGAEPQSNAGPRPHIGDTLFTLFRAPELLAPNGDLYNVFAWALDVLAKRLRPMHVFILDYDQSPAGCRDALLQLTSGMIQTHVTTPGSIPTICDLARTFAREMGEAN
Description: Inhibitory activity against Herpes simplex virus type-I specific thymidine kinase. Also noted: species or system Human alphaherpesvirus 1 strain SC16.
`CCCCc1ccc(NC2=NC(=O)C3N=CN([C@H]4C[C@H](O)[C@@H](COP(=O)(O)O)O4)C3=N2)cc1` (stereo not given in full) returned an EC50 of 400 µM.

In turn, `CCCCc1ccc(Nc2nc3c(ncn3[C@H]3O[C@@H](CO)[C@H](O)[C@@H]3O)c(=O)[nH]2)cc1` displayed an EC50 of 75 µM. The same measure, in the same setting: as for `Cc1ccc(Nc2nc3nc[nH]c3c(=O)[nH]2)cc1`, the figure is 50 µM; as for `CCCCc1ccc(Nc2nc3nc[nH]c3c(=O)[nH]2)cc1`, 50 µM; as for `CCCCc1ccc(Nc2nc3c(ncn3[C@H]3C[C@H](O)[C@@H](CO)O3)c(=O)[nH]2)cc1`, 25 µM. The same measure, in the same setting: as for `Cc1ccc(Nc2nc3c(ncn3C3O[C@@H](CO)[C@H](O)[C@@H]3O)c(=O)[nH]2)cc1` (stereo not given in full), the figure is 30 µM. Same read-out and setting: the result for `CCCCc1ccc(Nc2nc3c(ncn3COCCO)c(=O)[nH]2)cc1` reads 140 µM. On to `O=C1N=C(Nc2ccccc2)N=C2C1N=CN2[C@H]1C[C@H](O)[C@@H](COP(=O)(O)O)O1` (stereo not given in full), for which a half-maximal response (EC50) required 3 µM.

Compound `CCc1cccc(Nc2nc3nc[nH]c3c(=O)[nH]2)c1` came in with an EC50 of 3 µM.

For a further assay, the system named is Thymidine kinase (Human alphaherpesvirus 1). Description: Inhibitory activity against Herpes simplex virus type-I specific thymidine kinase; No inhibition detected at 1 mM concentration.
For `CCCCc1ccc(Nc2nc(N)c3ncn([C@H]4C[C@H](O)[C@@H](CO)O4)c3n2)cc1`, the EC50 entry was “Not Active”.
